# Laboratory results published in PubChem BioAssay (NCI).
#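 All cell lines were grown in 96-well plates and treated with compound for 48 hours. TGI denotes the concentration required for complete inhibition of growth.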
# Experiments:
# Test in all cases: DTP human tumour cell line panel, 48 h
# MDA-MB-231 breast = system: MDA-MB-231 breast
# U251 CNS = system: U251 CNS
# NCI-H23 lung = system: NCI-H23 lung
# HT29 colon = system: HT29 colon
# DU-145 prostate = system: DU-145 prostate
# OVCAR-3 ovarian = system: OVCAR-3 ovarian
# SW-620 colon = system: SW-620 colon
# SF-268 CNS = system: SF-268 CNS
# HL-60(TB) leukemia = system: HL-60(TB) leukemia
# M14 melanoma = system: M14 melanoma
# SK-MEL-28 melanoma = system: SK-MEL-28 melanoma
# 786-0 renal = system: 786-0 renal
# NCI-H226 lung = system: NCI-H226 lung
# SN12C renal = system: SN12C renal
# SK-OV-3 ovarian = system: SK-OV-3 ovarian
# HS 578T breast = system: HS 578T breast
# K-562 leukemia = system: K-562 leukemia
# SK-MEL-5 melanoma = system: SK-MEL-5 melanoma
# ACHN renal = system: ACHN renal
# SK-MEL-2 melanoma = system: SK-MEL-2 melanoma
# MDA-N = system: MDA-N
# UO-31 renal = system: UO-31 renal
# MDA-MB-435 = system: MDA-MB-435
# HCT-15 colon = system: HCT-15 colon
# SNB-75 CNS = system: SNB-75 CNS
# UACC-257 melanoma = system: UACC-257 melanoma
# BT-549 breast = system: BT-549 breast
# RPMI-8226 leukemia = system: RPMI-8226 leukemia
# OVCAR-4 ovarian = system: OVCAR-4 ovarian
# SF-295 CNS = system: SF-295 CNS
# RXF 393 renal = system: RXF 393 renal
# HOP-62 NSCLC = system: HOP-62 NSCLC
# MOLT-4 leukemia = system: MOLT-4 leukemia
# UACC-62 melanoma = system: UACC-62 melanoma
# TK-10 renal = system: TK-10 renal
# SNB-19 CNS = system: SNB-19 CNS
# COLO 205 colon = system: COLO 205 colon
# A498 renal = system: A498 renal
# EKVX NSCLC = system: EKVX NSCLC
# PC-3 prostate = system: PC-3 prostate
# HOP-92 NSCLC = system: HOP-92 NSCLC
# T-47D breast = system: T-47D breast
# IGROV1 ovarian = system: IGROV1 ovarian
# SF-539 CNS = system: SF-539 CNS
# HCT-116 colon = system: HCT-116 colon
# CCRF-CEM leukemia = system: CCRF-CEM leukemia
# MCF7 breast = system: MCF7 breast
# NCI/ADR-RES ovarian = system: NCI/ADR-RES ovarian
# KM12 colon = system: KM12 colon
# HCC-2998 colon = system: HCC-2998 colon
# OVCAR-5 ovarian = system: OVCAR-5 ovarian
# NCI-H522 lung = system: NCI-H522 lung
# MALME-3M melanoma = system: MALME-3M melanoma
# NCI-H460 lung = system: NCI-H460 lung
# OVCAR-8 ovarian = system: OVCAR-8 ovarian
# A549 NSCLC = system: A549 NSCLC
# CAKI-1 renal = system: CAKI-1 renal
# SR leukemia = system: SR leukemia
# LOX IMVI melanoma = system: LOX IMVI melanoma
compound,measurement,setting,value
CCC(C)NC(=S)N/N=C(\C)c1nc2ncccc2[nH]1 (configuration not stated),TGI,MDA-MB-231 breast,> 100 µM
same,TGI,U251 CNS,> 100 µM
same,TGI,NCI-H23 lung,> 100 µM
same,TGI,HT29 colon,> 100 µM
same,TGI,DU-145 prostate,> 100 µM
same,TGI,OVCAR-3 ovarian,> 100 µM
same,TGI,SW-620 colon,> 100 µM
same,TGI,SF-268 CNS,> 88.4 µM
same,TGI,HL-60(TB) leukemia,> 100 µM
same,TGI,M14 melanoma,62.6 µM
same,TGI,SK-MEL-28 melanoma,> 100 µM
same,TGI,786-0 renal,> 100 µM
same,TGI,NCI-H226 lung,38.7 µM
same,TGI,SN12C renal,> 100 µM
same,TGI,SK-OV-3 ovarian,> 69.9 µM
same,TGI,HS 578T breast,> 100 µM
same,TGI,K-562 leukemia,> 100 µM
same,TGI,SK-MEL-5 melanoma,28.6 µM
same,TGI,ACHN renal,> 100 µM
same,TGI,SK-MEL-2 melanoma,> 100 µM
same,TGI,MDA-N,> 100 µM
same,TGI,UO-31 renal,11.6 µM
same,TGI,MDA-MB-435,> 100 µM
same,TGI,HCT-15 colon,> 100 µM
same,TGI,SNB-75 CNS,> 100 µM
same,TGI,UACC-257 melanoma,> 100 µM
same,TGI,BT-549 breast,> 72.3 µM
same,TGI,RPMI-8226 leukemia,> 100 µM
same,TGI,OVCAR-4 ovarian,> 73 µM
same,TGI,SF-295 CNS,> 100 µM
same,TGI,RXF 393 renal,> 75.6 µM
same,TGI,HOP-62 NSCLC,> 100 µM
same,TGI,MOLT-4 leukemia,46.6 µM
same,TGI,UACC-62 melanoma,79.7 µM
same,TGI,TK-10 renal,> 100 µM
same,TGI,SNB-19 CNS,97.8 µM
same,TGI,COLO 205 colon,> 100 µM
same,TGI,A498 renal,> 100 µM
same,TGI,EKVX NSCLC,> 100 µM
same,TGI,PC-3 prostate,> 100 µM
same,TGI,HOP-92 NSCLC,44.6 µM
same,TGI,T-47D breast,> 56.7 µM
same,TGI,IGROV1 ovarian,> 100 µM
same,TGI,SF-539 CNS,70.5 µM
same,TGI,HCT-116 colon,> 100 µM
same,TGI,CCRF-CEM leukemia,38.7 µM
same,TGI,MCF7 breast,> 100 µM
same,TGI,NCI/ADR-RES ovarian,> 79.5 µM
same,TGI,KM12 colon,> 100 µM
same,TGI,HCC-2998 colon,> 100 µM
same,TGI,OVCAR-5 ovarian,> 84 µM
same,TGI,NCI-H522 lung,> 100 µM
same,TGI,MALME-3M melanoma,> 100 µM
same,TGI,NCI-H460 lung,> 100 µM
same,TGI,OVCAR-8 ovarian,> 100 µM
same,TGI,A549 NSCLC,> 100 µM
same,TGI,CAKI-1 renal,49.4 µM
same,TGI,SR leukemia,> 85.6 µM
same,TGI,LOX IMVI melanoma,> 100 µM
C=C1c2nc3ccccc3n2C=C(c2ccc(C)cc2)N1c1ccccc1,TGI,MDA-MB-231 breast,> 53.6 µM
same,TGI,U251 CNS,68.2 µM
same,TGI,NCI-H23 lung,> 100 µM
same,TGI,HT29 colon,9.77 µM
same,TGI,DU-145 prostate,> 100 µM
same,TGI,OVCAR-3 ovarian,> 40.9 µM
same,TGI,SW-620 colon,> 100 µM
same,TGI,SF-268 CNS,> 100 µM
same,TGI,HL-60(TB) leukemia,16.3 µM
same,TGI,M14 melanoma,> 61.2 µM
same,TGI,SK-MEL-28 melanoma,> 100 µM
same,TGI,786-0 renal,> 59.9 µM
same,TGI,NCI-H226 lung,15.3 µM
same,TGI,SN12C renal,> 100 µM
same,TGI,SK-OV-3 ovarian,> 100 µM
same,TGI,HS 578T breast,> 30.6 µM
same,TGI,K-562 leukemia,> 100 µM
same,TGI,SK-MEL-5 melanoma,31.9 µM
same,TGI,ACHN renal,> 100 µM
same,TGI,SK-MEL-2 melanoma,> 46.1 µM
same,TGI,MDA-N,4.39 µM
same,TGI,UO-31 renal,> 100 µM
same,TGI,MDA-MB-435,10.7 µM
same,TGI,HCT-15 colon,> 38 µM
same,TGI,SNB-75 CNS,15.9 µM
same,TGI,UACC-257 melanoma,> 100 µM
same,TGI,BT-549 breast,> 86.7 µM
same,TGI,RPMI-8226 leukemia,> 34.5 µM
same,TGI,OVCAR-4 ovarian,> 100 µM
same,TGI,SF-295 CNS,13.6 µM
same,TGI,RXF 393 renal,> 44 µM
same,TGI,HOP-62 NSCLC,> 100 µM
same,TGI,MOLT-4 leukemia,99 µM
same,TGI,UACC-62 melanoma,> 100 µM
same,TGI,TK-10 renal,> 100 µM
same,TGI,SNB-19 CNS,> 100 µM
same,TGI,COLO 205 colon,> 33.2 µM
same,TGI,A498 renal,> 100 µM
same,TGI,EKVX NSCLC,> 40.6 µM
same,TGI,PC-3 prostate,> 79.5 µM
same,TGI,HOP-92 NSCLC,> 100 µM
same,TGI,T-47D breast,> 100 µM
same,TGI,IGROV1 ovarian,> 100 µM
same,TGI,SF-539 CNS,7.46 µM
same,TGI,HCT-116 colon,> 81 µM
same,TGI,CCRF-CEM leukemia,> 54.8 µM
same,TGI,MCF7 breast,> 100 µM
same,TGI,NCI/ADR-RES ovarian,> 29.1 µM
same,TGI,KM12 colon,22 µM
same,TGI,HCC-2998 colon,10.7 µM
same,TGI,OVCAR-5 ovarian,> 100 µM
same,TGI,NCI-H522 lung,25.2 µM
same,TGI,MALME-3M melanoma,> 43.3 µM
same,TGI,NCI-H460 lung,27.1 µM
same,TGI,OVCAR-8 ovarian,> 63.4 µM
same,TGI,A549 NSCLC,> 100 µM
same,TGI,CAKI-1 renal,> 100 µM
same,TGI,SR leukemia,6.82 µM
same,TGI,LOX IMVI melanoma,66 µM
C=CCCCCNC(=O)C[C@@H]1C2=C(CC[C@H]1O[Si](C)(C)C(C)(C)C)N1C(=O)CCC/C=C\C1C2 (some centres not stated),TGI,MDA-MB-231 breast,26.1 µM
same,TGI,U251 CNS,26.3 µM
same,TGI,NCI-H23 lung,27.7 µM
same,TGI,HT29 colon,24.7 µM
same,TGI,DU-145 prostate,30.1 µM
same,TGI,OVCAR-3 ovarian,28 µM
same,TGI,SW-620 colon,27.4 µM
same,TGI,SF-268 CNS,29.9 µM
same,TGI,HL-60(TB) leukemia,13.6 µM
same,TGI,M14 melanoma,27.4 µM
same,TGI,SK-MEL-28 melanoma,29.7 µM
same,TGI,786-0 renal,28.7 µM
same,TGI,NCI-H226 lung,29.9 µM
same,TGI,SN12C renal,28.8 µM
same,TGI,SK-OV-3 ovarian,31.1 µM
same,TGI,HS 578T breast,32.9 µM
same,TGI,K-562 leukemia,20.9 µM
same,TGI,SK-MEL-5 melanoma,27.1 µM
same,TGI,ACHN renal,28.7 µM
same,TGI,SK-MEL-2 melanoma,26.1 µM
same,TGI,MDA-N,29.8 µM
same,TGI,UO-31 renal,27.2 µM
same,TGI,MDA-MB-435,28.4 µM
same,TGI,HCT-15 colon,27 µM
same,TGI,SNB-75 CNS,30.7 µM
same,TGI,UACC-257 melanoma,25.8 µM
same,TGI,BT-549 breast,30.1 µM
same,TGI,RPMI-8226 leukemia,22.1 µM
same,TGI,OVCAR-4 ovarian,25 µM
same,TGI,SF-295 CNS,30.2 µM
same,TGI,RXF 393 renal,23.7 µM
same,TGI,HOP-62 NSCLC,35.5 µM
same,TGI,MOLT-4 leukemia,20 µM
same,TGI,UACC-62 melanoma,25.5 µM
same,TGI,TK-10 renal,29.6 µM
same,TGI,SNB-19 CNS,27.4 µM
same,TGI,COLO 205 colon,26.7 µM
same,TGI,A498 renal,28.4 µM
same,TGI,EKVX NSCLC,31.1 µM
same,TGI,PC-3 prostate,24.4 µM
same,TGI,HOP-92 NSCLC,23.1 µM
same,TGI,T-47D breast,29.8 µM
same,TGI,IGROV1 ovarian,29.7 µM
same,TGI,SF-539 CNS,31.3 µM
same,TGI,HCT-116 colon,26 µM
same,TGI,CCRF-CEM leukemia,25.7 µM
same,TGI,MCF7 breast,24.7 µM
same,TGI,NCI/ADR-RES ovarian,24.7 µM
same,TGI,KM12 colon,28.2 µM
same,TGI,HCC-2998 colon,22.1 µM
same,TGI,OVCAR-5 ovarian,29.5 µM
same,TGI,NCI-H522 lung,24.7 µM
same,TGI,MALME-3M melanoma,28.2 µM
same,TGI,NCI-H460 lung,27.9 µM
same,TGI,OVCAR-8 ovarian,28.2 µM
same,TGI,A549 NSCLC,25.8 µM
same,TGI,CAKI-1 renal,24.8 µM
same,TGI,SR leukemia,23.4 µM
same,TGI,LOX IMVI melanoma,31.4 µM
